Experimental data from publication PMC7956625, “Optimization and Anti-Cancer Properties of Fluoromethylketones as Covalent Inhibitors for Ubiquitin C-Terminal Hydrolase L1” (Molecules, 2021).
Where a SMILES comes first, the peptide text is derived from it. The star is where a group is joined. Cbz = O=C(OCc1ccccc1)*; CH2F = FC*

What was measured:
UCHL3 = molecular target: T1, UCHL3 (Homo sapiens, UniProt P15374); experiment: KMS cell activity-based probe (HA-Ub-VME) target engagement assay; settings: 0–250 µM, 4 h, UCHL3 immunoblot
T1 sequence (P15374 1-230): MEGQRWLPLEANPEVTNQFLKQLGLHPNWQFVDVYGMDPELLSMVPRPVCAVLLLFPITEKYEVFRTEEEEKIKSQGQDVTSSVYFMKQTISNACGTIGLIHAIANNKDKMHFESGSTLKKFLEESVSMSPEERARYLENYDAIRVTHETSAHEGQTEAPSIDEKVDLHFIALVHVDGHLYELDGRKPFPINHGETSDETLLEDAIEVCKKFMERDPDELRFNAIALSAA
Procedure: To confirm on-target engagement in KMS11 cells, a Ub activity-based probe (ABP) gel-shift assay was employed. Using the hemagglutinin-tagged Ub-vinylmethylester (HA-Ub-VME) ABP to examine the activity of 1 in KMS11 cells, an immunoblot was performed. Cells were treated in dose-response with 1 (0–250 µM), washed with PBS, then lysed and treated with HA-Ub-VME. The HA-Ub-VME labels any remaining DUBs that have not been inhibited by 1.
Twelve hours prior to the addition of compounds to the cells, 1.2 million KMS11 or KMS12 cells mL^−1 per well were seeded in a 12 well plate. Cells were incubated with inhibitor for 4 h before washing the cells three time with PBS to remove excess compound. Cells were harvested, pelleted, and lysed in 60 µL of lysis buffer (0.5%NP-40 in 50 mM Tris pH 7.4). HA-Ub-VME was then added to a final concentration of 1 µM and incubated for 1 h at room temperature. An equal volume of 2X Laemmli sample buffer was added, and the samples were heated to 95 °C before separating by gel electrophoresis and analyzed by immunoblot.

UCHL1 = molecular target: T2, UCHL1 (Homo sapiens, UniProt P09936); experiment: SW1271 cell activity-based probe target engagement assay
T2 sequence (P09936 1-223): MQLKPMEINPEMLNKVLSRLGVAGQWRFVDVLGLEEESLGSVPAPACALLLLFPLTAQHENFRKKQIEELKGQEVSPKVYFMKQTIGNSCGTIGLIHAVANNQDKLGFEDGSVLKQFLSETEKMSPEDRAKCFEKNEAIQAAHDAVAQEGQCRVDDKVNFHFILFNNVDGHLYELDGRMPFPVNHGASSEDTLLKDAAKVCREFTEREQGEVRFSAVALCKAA
Procedure: UCHL1 is a key promoter of cell invasion and metastasis in small cell lung cancer but not necessarily required for cell viability or proliferation. Thus, we chose to assess the efficacy of targeting UCHL1 using the SW1271 small cell lung cancer cell line. […] The Ub-ABP assay was used to confirm on target engagement of UCHL1 within these cells.
[…] Cell pellets were thawed on ice before resuspending in 200 µL lysis buffer (50 mM Tris pH 7.6, 150 mM NaCl, 5 mM MgCl2, 0.5 mM EDTA, 5 mM DTT, 2 mM ATP, 0.5% NP-40, 10% v/v glycerol) and incubating on ice for 30 min with vigorous vortexing every 10 min. Cell lysate was clarified by centrifugation (17,000× g for 10 min) and the supernatant was collected, and the concentration was determined by Bradford (performed according to manufacturer’s protocol). Cells were normalized to 2 mg mL^−1. To each reaction mixture was added 36 µL of lysate and 2 µL of HA-Ub-VME or lysis buffer. This was incubated for 30 min at room temperature before quenching with 15 µL of 4X Laemmli buffer and heating to 95 °C for 5 min. Samples were subjected to SDS-PAGE and immunoblot.

Row | Structure (SMILES) | HA-Ub-UCHL3 complex formation in KMS11 cells (UCHL3) | selectivity over other DUBs in SW1271 cells (HA blot) (UCHL1; HA immunoblot) | HA-Ub-VME complex formation with UCHL1 in SW1271 cells (UCHL1; dose-response, UCHL1 immunoblot)
1 | COC(=O)CC[C@H](NC(=O)[C@H](C)NC(=O)[C@@H](NC(=O)OCc1ccccc1)C(C)C)C(=O)CF [Cpd 1, benzyloxycarbonyl-Val-Ala-Glu(γ-methoxy)-fluoromethylketone] (Cbz-Val-Ala-Glu(OMe)-CH2F) | does not inhibit UCHL3 in cells | – | –
2 | C#Cc1ccc(COC(=O)N[C@H](C(=O)N[C@@H](C)C(=O)N[C@@H](CCC(=O)OC)C(=O)CF)C(C)C)cc1 [Cpd 34] | – | demonstrated selectivity over other DUBs | inhibited HA-Ub-VME complex formation with UCHL1 in a dose-dependent manner
